Measurements taken from patent US20230085945A1, “ORTHOGONAL SAFETY SWITCHES TO ELIMINATE GENETICALLY ENGINEERED CELLS” (The Board of Trustees of the Leland Stanford Junior …, priority 2020, published 2023).

What was measured:
[1] = system: undifferentiated NANOG^iCasp9-YFP hPSCs; assay: Viability of undifferentiated NANOG^iCasp9-YFP hPSCs after AP20187 (FACS, alamar blue; dose and time course); type: cell-based, human
Method: FIG. 9: Efficacy of the NANOG^iCasp9-YFP safety switch (related to FIG. 3). A) Undifferentiated NANOG^iCasp9-YFP hPSCs were treated with AP20187 at the indicated concentrations for 24 hours, and then the percentage of viable remaining cells was subsequently analyzed using FACS analysis (left) and alamar blue staining (right). For the FACS analysis, the percentage of cells shown represents viable cells (i.e., DAPI-negative cells obtained after DAPI staining) that were then gated for YFP+ (i.e., NANOG^+) cells. For the alamar blue analysis, wild-type hPSCs were used as a negative control. […] AP20187 doses equal to or greater than 100 nM may prevent efficient killing of NANOG^iCasp9-YFP hPSCs by considerably downregulating NANOG. Gene expression is depicted normalized to the reference gene YWHAZ (i.e., YWHAZ=1.0). C) Undifferentiated NANOG^iCasp9-YFP hPSCs were treated with the indicated doses of AP20187 for various lengths of time (6, 12, 24, 48, 72 hours) and then alamar blue assay was performed immediately thereafter to quantify the extent of cell death. […] D) Immunofluorescent imaging of NANOG^iCasp9-YFP hESCs in the undifferentiated state and after differentiation into day 6 sclerotome as marked by TWIST1 expression, both without and with treatment of cells with 1 nM AP20187 for 24 hours. […] The following marker genes were assessed in each respective cell-type: sclerotome (bone) progenitors (TWIST1, SOX9, PAX1, PAX9), liver progenitors (SOX17, HNF4A, AFP, TBX3), and forebrain (neural) progenitors (PAX6, FOXG1, OTX2, SIX3). F) Further validation of NANOG^iCasp9-YFP using a simulated mixed cell culture assay. NANOG^iCasp9-YFP undifferentiated hPSCs and hPSC-derived derived sclerotome cells were mixed at a 3:7 ratio, respectively. Mixed cells were treated with AP20187, and 24 hours post-treatment, FACS analysis was done to assess remaining NANOG^iCasp9-YFP hPSCs in culture.
Alamar Blue proliferation assay—hESCs were cultured in mTeSR1 (in the presence or absence of AP20187 at the indicated concentrations). After 24 hours of AP20187 treatment, mTeSR1 media with Alamar Blue (concentration based on manufacturer's protocol) was changed for both untreated and treated samples. A control well containing media+Alamar Blue was used to assess blank wells and to therefore to measure and subtract fluorescence noise.
Flow cytometric quantification of viable cells—NANOG^iCasp9-YFP hESCs were dissociated into single cells with Accutase and 1×10^6 cells were plated per well in a 6-well plate pre-coated with Matrigel. […] Subsequently, to quantify the percentage of surviving cells, the cultures were dissociated with TrypLE Express. […] YFP^+ (i.e., NANOG^+) cells were analyzed (Beckman Coulter CytoFlex Analyzer) to count live cells for both untreated and AP20187-treated groups. […]

[2] = system: NANOG^iCasp9-YFP hPSC-derived day-6 liver progenitors, bone progenitors and forebrain progenitors; assay: Survival of differentiated hPSC-derived tissue progenitors after AP20; type: cell-based, human; details: 24-hour AP20 treatment
Method: FIG. 3: Implementation of the NANOG^iCasp9-YFP safety switch. A) Schema depicting how drug AP20187 induces dimerization of Caspase9 in undifferentiated NANOG^iCasp9-YFP hESCs, subsequently triggering cell death (top left). NANOG^iCasp9-YFP hESCs were treated for 24 hours with increasing concentrations of AP20187. AP20187 was withdrawn, and cultures were further grown in mTeSR1 to allow any surviving hESCs to grow; any surviving colonies were counted 1 week later (top right). Alkaline phosphatase staining of whole wells of a 12-well plate after 24-hour treatment with AP20187 (bottom). […] Bioluminescent imaging of mice occurred weekly for 5 weeks with no transplant control (NTC) animals included for relative luminescence normalization. Total flux (photons/sec) was measured for each animal and averaged. […] The percentage of surviving cells was calculated relative to untreated controls. […]
Cell count assay—hESCs were dissociated with EDTA and 5×10^5 cells were plated per well of a 6-well plate that was pre-coated with Matrigel. […] Subsequently, cells were dissociated and the number of viable cells were counted using the Bio-Rad TC20™ Automated Cell Counter (trypan blue exclusion). […]

For CC[C@H](C(=O)N1CCCC[C@H]1C(=O)O[C@H](CCc1ccc(OC)c(OC)c1)c1cccc(OCC(=O)NCC(CNC(=O)COc2cccc([C@@H](CCc3ccc(OC)c(OC)c3)OC(=O)[C@@H]3CCCCN3C(=O)[C@@H](CC)c3cc(OC)c(OC)c(OC)c3)c2)CN(C)C)c1)c1cc(OC)c(OC)c(OC)c1 [AP20], the “concentration that activates the NANOG^iCasp9-YFP system” value [1] was 1 nM, the “duration of treatment that sufficed to eliminate hESCs” value [1] was 12 h and the “time to activity / cell death” value ([1]; 1 nM AP20187) was ≤ 12 h. The IC50 ([1]; undifferentiated NANOG^iCasp9-YFP hPSCs) was 0.065 nM and the “differentiated progenitors spared / remaining viable” value [2] was > 95%.
